The target of this experiment is T1, human APJ receptor (Homo sapiens, UniProt P35414).
T1 construct: expressed in transfected cells; host or cells: HEK293
T1 sequence (P35414 1-380): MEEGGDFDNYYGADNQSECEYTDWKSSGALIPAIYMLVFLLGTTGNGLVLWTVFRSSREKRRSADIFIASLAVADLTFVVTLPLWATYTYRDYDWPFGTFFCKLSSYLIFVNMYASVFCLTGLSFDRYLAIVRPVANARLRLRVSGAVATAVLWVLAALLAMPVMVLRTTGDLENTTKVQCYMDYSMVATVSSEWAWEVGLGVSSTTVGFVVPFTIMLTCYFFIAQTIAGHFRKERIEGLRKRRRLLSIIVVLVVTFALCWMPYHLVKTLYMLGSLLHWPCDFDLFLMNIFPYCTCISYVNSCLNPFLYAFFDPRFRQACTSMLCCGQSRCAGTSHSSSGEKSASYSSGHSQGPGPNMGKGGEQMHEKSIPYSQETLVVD
As to the kind of experiment: Intracellular cAMP accumulation assay (APJ hcAMP, HTRF). Conditions: HEK293 cells stably expressing human APJ receptor; inhibition of forskolin-mediated cAMP production; read-out: APJ cAMP Potency range. The class given is cell-based. A digest of the protocol:
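HEK293 cells stably expressing the receptor (5,000/well) treated with compound plus […] and 2 μM forskolin for 30 min at room temperature; cAMP by HTRF against a cAMP standard curve. EC50 from variable-slope sigmoidal fit; Ymax as % of (Pyr1)apelin-13 inhibition.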
(cAMP levels reflect the balance of adenylyl cyclase and phosphodiesterase activity.)

pEC50: −log10 of the molar value.

In the case of `CC[C@@H](c1ccccc1)n1c(-c2nc(C)cs2)nc(=O)c(Cc2ccc(-c3cccn(C)c3=O)c(F)c2)c1O` [Example 119, 5-{[3-fluoro-4-(1-methyl-2-oxo-1,2-dihydropyridin-3-yl)phenyl]methyl}-6-hydroxy-2-(4-methyl-1,3-thiazol-2-yl)-1-[(1S)-1-phenylpropyl]-1,4-dihydropyrimidin-4-one], the pEC50 is 8.00 to 11.00.

As to `CC[C@@H](c1ccccc1)n1c(-c2nc(C)cs2)nc(=O)c(Cc2ccc(-c3ccc(F)cc3C(N)=O)c(F)c2)c1O` [Example 120, 2′,4-difluoro-4′-{[6-hydroxy-2-(4-methyl-1,3-thiazol-2-yl)-4-oxo-1-[(1S)-1-phenylpropyl]-1,4-dihydropyrimidin-5-yl]methyl}-[1,1′-biphenyl]-2-carboxamide], the pEC50 was 8.00 to 11.00.

Turning to `Cc1ncccc1-c1ccc(Cc2c(O)n([C@H](c3cc(F)cc(C#N)c3)C(C)C)c(COC(C)C)nc2=O)cc1` [Example 121, 3-fluoro-5-[(1S)-1-(6-hydroxy-5-{[4-(2-methylpyridin-3-yl)phenyl]methyl}-4-oxo-2-[(propan-2-yloxy)methyl]-1,4-dihydropyrimidin-1-yl)-2-methylpropyl]benzonitrile], the pEC50 was 7.00 to 8.00.

`CCOCc1nc(=O)c(Cc2ccc(-c3ccncc3C)cc2)c(O)n1[C@@H](COC)c1cc(F)cc(F)c1` [Example 122, 1-[(1R)-1-(3,5-difluorophenyl)-2-methoxyethyl]-2-(ethoxymethyl)-6-hydroxy-5-{[4-(3-methylpyridin-4-yl)phenyl]methyl}-1,4-dihydropyrimidin-4-one]: the pEC50 was 8.00 to 11.00.

`CCOCc1nc(=O)c(Cc2ccc(-c3cccnc3C)cc2)c(O)n1[C@@H](COC)c1cc(F)cc(F)c1` [Example 123, 1-[(1R)-1-(3,5-difluorophenyl)-2-methoxyethyl]-2-(ethoxymethyl)-6-hydroxy-5-{[4-(2-methylpyridin-3-yl)phenyl]methyl}-1,4-dihydropyrimidin-4-one]: the pEC50 was 8.00 to 11.00.

`CCOCc1nc(=O)c(Cc2ccc(-c3ccc(F)nc3C)cc2)c(O)n1[C@@H](COC)c1cc(F)cc(F)c1` [Example 124, 1-[(1R)-1-(3,5-difluorophenyl)-2-methoxyethyl]-2-(ethoxymethyl)-5-{[4-(6-fluoro-2-methylpyridin-3-yl)phenyl]methyl}-6-hydroxy-1,4-dihydropyrimidin-4-one]: the pEC50 was 8.00 to 11.00.

As to `CCOCc1nc(=O)c(Cc2ccc(-c3ccc(F)nc3)cc2)c(O)n1[C@@H](COC)c1cc(F)cc(F)c1` [Example 125, 1-[(1R)-1-(3,5-difluorophenyl)-2-methoxyethyl]-2-(ethoxymethyl)-5-{[4-(6-fluoropyridin-3-yl)phenyl]methyl}-6-hydroxy-1,4-dihydropyrimidin-4-one], the pEC50 was 7.00 to 8.00.

For the compound `CCOCc1nc(=O)c(Cc2ccc(-c3ccnc(F)c3C)cc2)c(O)n1[C@@H](COC)c1cc(F)cc(F)c1` [Example 126, 1-[(1R)-1-(3,5-difluorophenyl)-2-methoxyethyl]-2-(ethoxymethyl)-5-{[4-(2-fluoro-3-methylpyridin-4-yl)phenyl]methyl}-6-hydroxy-1,4-dihydropyrimidin-4-one], the pEC50 was 8.00 to 11.00.

For `CCCCc1nc(=O)c(Cc2cccc(-c3ccncc3C)c2)c(O)n1[C@@H](CC)c1cc(F)cc(F)c1` [Example 127, 2-butyl-1-[(1S)-1-(3,5-difluorophenyl)propyl]-6-hydroxy-5-{[3-(3-methylpyridin-4-yl)phenyl]methyl}-1,4-dihydropyrimidin-4-one], the pEC50 is 7.00 to 8.00.

Take `CCCCc1nc(=O)c(Cc2cccc(-c3ccnc(F)c3C)c2)c(O)n1[C@@H](CC)c1cc(F)cc(F)c1` [Example 128, 2-butyl-1-[(1S)-1-(3,5-difluorophenyl)propyl]-5-{[3-(2-fluoro-3-methylpyridin-4-yl)phenyl]methyl}-6-hydroxy-1,4-dihydropyrimidin-4-one]: the pEC50 is 7.00 to 8.00.

Consider `CCCCc1nc(=O)c(Cc2cccc(-c3cccnc3C)c2)c(O)n1[C@@H](CC)c1cc(F)cc(F)c1` [Example 129, 2-butyl-1-[(1S)-1-(3,5-difluorophenyl)propyl]-6-hydroxy-5-{[3-(2-methylpyridin-3-yl)phenyl]methyl}-1,4-dihydropyrimidin-4-one], for which the pEC50 is 7.00 to 8.00.

Regarding `CCCCc1nc(=O)c(Cc2cccc(-c3ccc(F)nc3C)c2)c(O)n1[C@@H](CC)c1cc(F)cc(F)c1` [Example 130, 2-butyl-1-[(1S)-1-(3,5-difluorophenyl)propyl]-5-{[3-(6-fluoro-2-methylpyridin-3-yl)phenyl]methyl}-6-hydroxy-1,4-dihydropyrimidin-4-one], the pEC50 was 8.00 to 11.00.

In the case of `CCCCc1nc(=O)c(Cc2cccc(-c3ccc(F)cc3C(N)=O)c2)c(O)n1[C@@H](CC)c1cc(F)cc(F)c1` [Example 131, 3′-({2-butyl-1-[(1S)-1-(3,5-difluorophenyl)propyl]-6-hydroxy-4-oxo-1,4-dihydropyrimidin-5-yl}methyl)-4-fluoro-[1,1′-biphenyl]-2-carboxamide], the pEC50 is 7.00 to 8.00.

Consider `CC[C@@H](c1cc(F)cc(F)c1)n1c(-c2ccn(CC)n2)nc(=O)c(Cc2ccc(-c3ccnc(F)c3C)cc2)c1O` [Example 132, 1-[(1S)-1-(3,5-difluorophenyl)propyl]-2-(1-ethyl-1H-pyrazol-3-yl)-5-{[4-(2-fluoro-3-methylpyridin-4-yl)phenyl]methyl}-6-hydroxy-1,4-dihydropyrimidin-4-one], for which the pEC50 was 8.00 to 11.00.

For `CC[C@@H](c1cc(F)cc(F)c1)n1c(-c2ccn(CC)n2)nc(=O)c(Cc2ccc(-c3cccnc3C)cc2)c1O` [Example 133, 1-[(1S)-1-(3,5-difluorophenyl)propyl]-2-(1-ethyl-1H-pyrazol-3-yl)-6-hydroxy-5-{[4-(2-methylpyridin-3-yl)phenyl]methyl}-1,4-dihydropyrimidin-4-one], the pEC50 was 8.00 to 11.00.

In the case of `CC[C@@H](c1cc(F)cc(F)c1)n1c(-c2ccn(CC)n2)nc(=O)c(Cc2ccc(-c3ccc(F)nc3C)cc2)c1O` [Example 134, 1-[(1S)-1-(3,5-difluorophenyl)propyl]-2-(1-ethyl-1H-pyrazol-3-yl)-5-{[4-(6-fluoro-2-methylpyridin-3-yl)phenyl]methyl}-6-hydroxy-1,4-dihydropyrimidin-4-one], the pEC50 was 8.00 to 11.00.

With `CC[C@@H](c1cc(F)cc(F)c1)n1c(-c2ccn(CC)n2)nc(=O)c(Cc2ccc(-c3ccc(F)nc3)cc2)c1O` [Example 135, 1-[(1S)-1-(3,5-difluorophenyl)propyl]-2-(1-ethyl-1H-pyrazol-3-yl)-5-{[4-(6-fluoropyridin-3-yl)phenyl]methyl}-6-hydroxy-1,4-dihydropyrimidin-4-one], the pEC50 is 8.00 to 11.00.

Take `CC[C@@H](c1cc(F)cc(F)c1)n1c(-c2ccn(CC)n2)nc(=O)c(Cc2ccc(-c3ccncc3C)cc2)c1O` [Example 136, 1-[(1S)-1-(3,5-difluorophenyl)propyl]-2-(1-ethyl-1H-pyrazol-3-yl)-6-hydroxy-5-{[4-(3-methylpyridin-4-yl)phenyl]methyl}-1,4-dihydropyrimidin-4-one]: the pEC50 was 8.00 to 11.00.

Source of the values: US11390616B2 (BRISTOL-MYERS SQUIBB COMPANY, priority 2015, dated 2022).
